Experimental data taken from a melting point compilation (Tetko et al.; mined from patent text by program, amines drawn as free bases though some values may be those of a salt).

| melting point [°C] | Structure (SMILES) |
| --- | --- |
| 75 to 77 | Cc1cc(-c2cc(O)c(SCCc3ccccc3)c(=O)o2)ccc1OCc1ccccn1 |
| 133 | CSc1ccc(O)cn1 |
| 181 to 183 | O=C(O)Cc1c(C(=O)c2ccc(Cl)cc2)[nH]c2cc(Cl)ccc12 |
| 170 to 171 | COc1ccc(-c2nc(S(=O)c3ccncc3)[nH]c2-c2ccc(OC)cc2)cc1 (configuration not stated) |
| 110 | Cc1cncc(C(=O)OC(C)c2nc3c(c(=O)n(C)c(=O)n3C)n2C)c1 (configuration not stated) |
| 296 to 298 | O=C(NCc1ccc(Cl)cc1)c1cnc2c(F)cc(-c3nccs3)cc2c1O |
| 226 to 228 | Cc1cn2nc(-c3ccccc3)nc2cc1NC(=O)c1c(C(=O)N2CCC2)cnn1C |
| 76 to 79 | CS(=O)(=O)c1ccc(C(CC2CCCC2)C(=O)Nc2ccccn2)cc1F (configuration not stated) |
| 167 to 169 | CC(C)[C@H](NC(=O)c1ccccc1)C(=O)NCC(=O)N[C@@H](CCCNC(=N)N)C(=O)Nc1ccc2ncccc2c1 |
| 245 to 246 | COc1ccccc1C(=O)c1sc(Nc2cccnc2)nc1N |
| 206 to 207 | COc1c(NC(=O)Nc2ccc(-c3ccc(CN4CCOCC4)nc3)c3ccccc23)cc(C(C)(C)C)cc1NS(=O)(=O)c1ccccc1 |
| 247 to 250 | Nc1cc2c(Nc3ccc(OCc4ccccn4)c(Cl)c3)ncnc2cn1 |
| 174 to 176 | Nc1ccc(S(=O)(=O)Nc2cccc3c(Cl)c[nH]c23)cc1 |
| 178 to 180 | FC(F)C(F)(F)Sc1nc(-c2ccc(Cl)c(Cl)c2)c(-c2cccs2)[nH]1 |
| 148 to 150 | NC(=O)CNC(=O)c1cc(-c2ccc(F)c3cc(Cc4cc(F)cc(Cl)c4)sc23)ccc1F |
| 355 to 357 | NC(=O)c1nc(-c2cccc(O)c2)nc2c1[nH]c(=O)n2[C@H]1CC[C@H](O)CC1 |
| 160 | COC(C)(CC(=O)Nc1cccc(OC(=O)NC(C)C)c1)OC |
| 114 to 115 | CCOc1nn(-c2ccc(C(F)(F)F)cc2)cc1CCCOc1ccccc1CC(=O)O |
| 50 to 53 | COC(=O)C(O)C(F)(F)F (configuration not stated) |
| 139 to 140 | CC1CN(C(=O)Nc2ccc(Cl)cc2)N=C1c1ccc(Cl)cc1 (configuration not stated) |
| 159 to 160 | CCCCc1nc2c(N)nc3ccccc3c2n1NCc1ccccc1 |

| melting point [°C] | Structure (SMILES) |
| --- | --- |
| 189 to 191 | O=C(Nc1ccc(F)cc1F)C1c2ccccc2COc2ccc(Br)cc21 (configuration not stated) |
| 257 to 258 | COc1ccc(-c2c(Cl)c(CN3C(=O)CCC3=O)nc3sc4c(c23)CCC(=O)C4)cc1 |
| 163 to 165 | O=C1C2CC3CC1CC(c1cc(Br)ccc1OCc1ccccc1)(C3)C2 |
| 188 | COc1ccc([C@@H]2Sc3cc(Oc4ccc5c(c4)OCO5)ccc3NC(=O)[C@@H]2O)cc1 |
| 135 | CC(CN(C)C)N1c2ccccc2Sc2ccc(C(=O)NCc3cccs3)cc21 (racemic) |
| 83 | C(=Cc1ccccc1)COc1ccc2c(c1)OCO2 |
| 237 to 239 | CC(=O)OCC(COC(C)=O)OCn1cnc2c(=O)[nH]c(N)nc21 |
| 157 to 158 | CN1C(=O)CN(N=Cc2ccccc2)C(c2ccccc2)c2cc(Cl)ccc21 (configuration not stated) |
| 93 to 95 | CCN1C=C(N)N=C(C2CC2)c2ccccc21 |
| 152 to 154 | CNc1nnnn1-c1ccccc1C(=O)O |
| 303 | Cc1ccc(Cl)c2c1[nH]c1c(C(=O)O)cccc12 |
| 195 to 198 | O=C1N(Cc2cnc(Cl)s2)c2ccccc2C12COc1cc3c(cc12)OCO3 (configuration not stated) |
| 229 to 231 | Cn1c(C(F)(F)C(F)(F)F)cc(=O)n(-c2cc(C(=O)O)c(Cl)cc2F)c1=O |
| 162 | Cc1cc(-c2[nH]c3ccc(OCc4ccccc4)cc3c2C)cc(C)c1O |
| 80 to 83 | CCOC(=O)c1ccc(NCCCc2ccccc2)cc1 |
| 150 | Nc1ccc(C(=O)CCCCl)cc1[N+](=O)[O-] |
| 121 to 122 | CCCNc1c2ccccc2nc2c1c(C)nn2-c1ccccn1 |
| 123 to 125 | CSC(Oc1cc(C)c(Br)c(C)c1)C(=O)NC(C)(C)C (configuration not stated) |
| 129 to 132 | C[Si](C)(C)CCCCNC(=O)n1cc(F)c(=O)[nH]c1=O |
| 140 to 142 | CC1(C)CCc2c(ccc3c2C(=O)C(Cl)=CC3=O)O1 |
| 208 | O=C(NC(=O)c1ccc(F)cc1Cl)Nc1ccc(Cl)c(Cl)c1 |

More lines, now with the values behind:

| Structure (SMILES) | melting point [°C] |
| --- | --- |
| Cc1ccc(C2Sc3ccccc3NC(=O)C2CO)cc1 (configuration not stated) | 229 |
| CCOC(=O)Nc1ccccc1N1CC2(CCN(C)CC2)c2ccccc21 | 99.5 to 101 |
| O=C1Nc2ccc(F)c(F)c2C1c1ncnc2nn(C3CCCC3)cc12 (configuration not stated) | 280 to 284 |
| O=C(O)CCC(=O)Nc1cccc2ccccc12 | 167 to 169 |
| Cn1ncc2c1-c1c(Oc3ccc(OCc4ccc(Cl)cc4)cc3)sc(C(N)=O)c1CC2 | 216 to 217 |
| CCCOc1c([N+](=O)[O-])cccc1[N+](=O)[O-] | 119 to 120 |
| FC(F)(F)c1ccc(-c2ccnc(Nc3cnc4ccccc4c3)c2)cc1 | 207 to 208 |
| CCOc1cc2c(=O)[nH]cnc2cc1OC(C)C | 204 to 205 |
| Clc1ccc2nc(CN3CCN(c4ccccc4)CC3)cn2c1 | 128 to 130 |
| O=C1CCCC(CN2CCN(c3ccccn3)CC2)C1 (configuration not stated) | 86 to 90 |
| O=C(c1cc(C(F)(F)F)cc(C(F)(F)F)c1)N1CCC2(CC1)C(=O)NCN2c1ccc(Cl)c(Cl)c1 | 220 to 222 |
| COc1cc(OCc2ccccn2)ccc1/C=C/C(=O)CC(=O)/C=C/c1cc2ccccc2s1 | 188 |
| N#Cc1c(Cl)nc2cscc2c1Cl | 228 |
| O=c1nc(-c2ccccc2)c2cc([N+](=O)[O-])ccc2n1CC(F)(F)F | 195 to 196 |
| CCOC(=O)c1ccc(/C=C(\C)c2ccc3c(c2)CCCCO3)cc1 | 60 to 61 |
| CC1(O)CC(=O)OC(C=Cc2ccc(OCc3ccccc3)cc2)C1 (configuration not stated) | 155 to 156 |
| Cn1cc(C(=O)NCc2ccc(Cl)cc2)c(=O)c2cc(I)sc21 | 236 to 237 |
| CCCCCCCCCCCCCCOC(=O)c1cc(C(=O)OCCCCCCCCCCCCCC)cc([N+](=O)[O-])c1 | 60 to 61 |
| CCCN(CCCNc1ncc(Cc2ccc(F)cc2)c(=O)[nH]1)c1ccccn1 | 107 to 109 |
| O=C1CCC(N2Cc3c(OCc4ccc(CN5CCN(CC(F)(F)F)CC5)cc4)cccc3C2=O)C(=O)N1 (configuration not stated) | 133 to 135 |

| Structure (SMILES) | melting point [°C] |
| --- | --- |
| CN(C)c1ccc(C(=S)Nc2ccc([N+](=O)[O-])cc2)cc1 | 210 |
| CN(C)c1nc(NCc2ccco2)nc(Nc2cccc(C(F)(F)F)c2)n1 | 81 to 83 |
| COC(=O)COCc1cc(Br)ccc1C(=O)OC | 60 to 62 |
| CN=C(NC#N)Nc1ccc2c(c1)CCC1(C)CC(=O)NN=C21 (configuration not stated) | 269 |
| O=C1C=CC(O)(c2nccs2)C=C1 | 138 to 139 |
| CCc1c(C(=O)OC)c(C(=O)OC)c2n1-c1ccccc1C2 | 86 to 88 |
| N[C@@H](CCC(=O)O)C(=O)N[C@@H](Cc1ccccc1)C(=O)OCc1ccccc1 | 103 to 104 |
| CC(C)(C)C(NC(=O)c1cccc(I)c1)Nc1c(Nc2cccnc2)c(=O)c1=O (configuration not stated) | 234 to 236 |
| N#Cc1cnc2cc(O)ccc2c1Nc1ccc2cn[nH]c2c1 | > 250 |
| CS(=O)(=O)c1ccccc1C1CCCC2(C1)C(=O)Nc1ccccc12 (configuration not stated) | 190 to 191 |
| COc1ccc(-c2cc(=O)n(Cc3ccccc3)nc2-c2ccc(OC)cc2)cc1 | 145 to 146 |
| CCCCCCCCCCNC(=O)C1CSC(c2cccnc2)N1 (configuration not stated) | 88 |
| OCCCCCCCCCCCCCCCCc1c[nH]c2ccccc12 | 79 to 80 |
| O=Cc1ccc(/C=C/c2ccncc2)nc1 | 131 to 136 |
| Cn1ncc(N2CCCC2)c(-c2ccccc2C=NO)c1=O | 239 |
| C=CCNc1cc(Cl)nnc1Cl | 95 to 98 |
| C[C@H]1C[C@@]2(N)CN(c3c(F)cc4c(=O)c(C(=O)O)cn5c4c3OC[C@@H]5C)C[C@@H]12 | 122 to 124 |
| COc1ccc2c(n1)C1(CO2)C(=O)Nc2ccccc21 (configuration not stated) | 199 to 200 |
| CC1CCN(CC#CCN2C(=O)c3cccc4c3N(CC4)c3ccccc32)CC1 | 157 to 158 |
| O=c1oc(-c2ccc(F)cc2)cc2ccccc12 | 134 to 135 |

| Structure (SMILES) | melting point [°C] |
| --- | --- |
| CC(=O)C1=C(C)NC2=C(C(=O)CCC2)C1c1cccc([N+](=O)[O-])c1 (configuration not stated) | > 250 |
| CN1C2CCCC1CN(c1ccc(C#Cc3ccc(N)cc3)cc1)C2 | 191 |
| CCC1CCc2c(sc3cc(N)ccc3c2=O)C1 (configuration not stated) | 187 |
| c1ccc2c(c1)nc1n2CCCO1 | 116 to 118 |
| COC(=O)/C=C/c1ccc(NC(=O)CCCBr)nc1 | 156 to 173 |
| CCOc1nc(Cc2ccc(Cl)cc2)nc(O)c1NC(=O)c1ccco1 | 91.5 to 92.5 |
| N#CC(Cl)Cc1ccc([N+](=O)[O-])cc1 (configuration not stated) | 112 |
| O=C(Nc1ccc(F)cc1)C12CC3CC(CC(C3)C1)C2 | 170 to 171 |
| OCCCCOc1cccc(/C=C/c2nc3ccccc3s2)c1 | 88 to 90 |
| Cc1nnc(OC(=O)NC(C)(C)C)n1-c1ccc(Cl)cn1 | 132 to 134 |
| CC(=O)N(C)C(=N[N+](=O)[O-])NCc1csc(Cl)n1 | 105 to 108 |
| CC(C)(C)OC(=O)N1CCC(c2nc3cc(-c4ccc(C(N)=O)c(Cl)c4)ccc3o2)CC1 | 169 to 171 |
| CCCC1=C(Cl)C(=O)c2ccccc2C1=O | 71 to 73 |
| Cc1cn(-c2ccc(NC(=O)c3ccc(Cl)c(C#Cc4ccc(NC5CCC5)nn4)c3)cc2C(F)(F)F)cn1 | 153 to 155 |
| Cc1nnc2n1-c1sc(CCC(=O)N3CCOCC3)cc1C(c1ccccc1Cl)=NC2C (configuration not stated) | 162 to 163 |
| O=C(O)Cc1ccc2c(c1)CC(CNS(=O)(=O)c1ccccc1)C2 (configuration not stated) | 140 to 141 |
| CN1CCCC1CNC(=O)c1cc(S(N)(=O)=O)cc2c1OCCO2 (configuration not stated) | 187 to 188 |
| C=CCNC(=S)Nc1cc(=N)n2c(n1)SCC2 | 225 to 226 |
| COc1cc(COc2nn(-c3ccccc3)cc2C(=O)O)ccc1OCc1nc(-c2ccco2)oc1C | 184 to 185 |
| CCOC(=O)C1=C(O)c2ccc3ccccc3c2S(=O)(=O)N1C | 163 to 165 |
